In US11559525B2, “Therapeutic drug for dyskinesia” (Sumitomo Pharma Co., Ltd., priority 2019, dated 2023):
Marks after values point to notes of the source that are not given here.

Columns and labels:
[1] = Plasma tandospirone concentration measured after observation and evaluation of behavior in PD-LID rats; assay type: in vivo, rat; conditions: rat, plasma
Method: 50 μL of rat plasma sample was fractionated into a polypropylene microtube. 50 μL of methanol (50 μL of standard solution for calibration curve sample) and 200 μL of internal standard solution (Bezafibrate methanol solution: 200 nmol/L, 200 μL of methanol for blank sample) are added and stirred for about 10 seconds with a mixer. This is centrifuged (4° C., 4500 rpm, 10 min), and then the supernatant is subjected to vacuum filtration using a filter (FastRemover MF 0.2 μm). 70 μL of aqueous 10 mmol/L ammonium acetate solution is added to 70 μL of the resulting filtrate and stirred for about 10 seconds with a mixer to prepare a measurement sample.
(§1) When evaluating a tape agent, the hair on the abdominal region of rats was shaved before the evaluation date. The tape agent of formulation 2 was applied to the abdominal regions of rats on the evaluation date at 60 cm^2/kg (37 mg/kg). After 4 hours from application, a levodopa containing solution was intraperitoneally administered to observe and evaluate the behavior. Individuals with 50% or more of the tape agent coming off during the test were excluded from analysis.
(§2) After 4 hours from application, a levodopa containing solution was intraperitoneally administered to observe and evaluate the behavior. Individuals with 50% or more of the tape agent coming off during the test were excluded from analysis.
After 4 hours, a levodopa containing solution was administered to observe and evaluate the behavior.
After 4 hours, a levodopa containing solution was administered to observe and evaluate the behavior (day 0 of implanting the pump). Repeat administration of once daily levodopa containing solution was continued thereafter. The behavior was also observed and evaluated on day 13 of implanting the pump.

[2] = tested on: rat Vogel conflict test model; assay: Rat Vogel conflict test model (anxiolytic action); assay type: in vivo; conditions: non-clinical models, PD-LID effect in 6-OHDA-lesioned rats
Method: The anxiolytic action was evaluated using a rat Vogel conflict test model, and the effect on PD-LID was evaluated in 6-OHDA-lesioned rats.

[3] = tested on: PD-LID rat model (6-OHDA-lesioned rats); assay: Dyskinesia-like symptoms (AIMs score) after transdermal tandospirone tape agent in PD-LID rat model; assay type: in vivo
Source text: A rat striatum dopaminergic denervation model using topical administration of 6-hydroxydopamine (hereinafter, also referred to as “6-OHDA”) to one side of the brain is known as a typical experimental model for PD-LID (rats treated on one side with 6-OHDA (6-OHDA-lesioned rats)). Dyskinesia-like abnormal involuntary movements (AIMs) manifest in said model with repeated administration of levodopa (Lundblad et al., European Journal of Neuroscience, 2002, 15: 120-132, Winkler et al., Neurobiology of Disease, 2002, 10: 165-186).
Wistar male rats (12-week old, Japan SLC, Inc.) were used for the preparation of animal models. Desipramine hydrochloride (25 mg/kg; Wako Pure Chemical) was intraperitoneally administered. After 30 minutes from the administration, the rats were subjected to isoflurane inhalational anesthetic using a general anesthesia apparatus for experimental animals. Under isoflurane anesthesia, the rats were immobilized to a brain stereotaxic instrument. The skin on the head was incised with a surgical scalpel to expose the skull. The coordinates of the bregma used as the origin (AP: 0, ML: 0, DV: 0) was determined, and the coordinates of the right medial forebrain bundle (AP: −4.4 mm, ML: 1.5 mm, DV: 7.8 mm from bregma) were measured. After inserting an injection tube for administration at the measured coordinates, 6-OHDA (9 μg/4 μL; Sigma-Aldrich) inducing dopaminergic denervation was topically injected. After 2 weeks from surgery, apomorphine hydrochloride hemihydrate (0.5 mg/kg; Wako Pure Chemical) was subcutaneously administered, and the rotation movement to the opposite side from the 6-OHDA injected site was observed. Rats with 7 rotations or more per minute were used as rats treated on one side with 6-OHDA.
To make a PD-LID model, a mixture of levodopa methyl ester hydrochloride (6 mg/kg; Sigma-Aldrich) dissolved in saline and benserazide hydrochloride (15 mg/kg; Sigma-Aldrich) (hereinafter, also referred to as “levodopa containing solution”) was intraperitoneally administered once daily to 6-OHDA-lesioned rats. The levodopa containing solution was repeated administered for 3 weeks or longer to observe and evaluate the behavior. The behavior was observed and evaluated in a transparent acrylic cage for 1 minute every 20 minutes after 20 minutes from the intraperitoneal administration of the levodopa containing solution, up until after 3 hours from administration. […] The sum of the scores for Limb AIMs, Axial AIMs, and Orolingual AIMs in 3 hours was used as the total AIMs score. Individuals with a total AIMs score of less than 10 were excluded from the test as not manifesting a dyskinesia-like symptom. […] The rats were assigned to each dosing group by using the 3 hour AIMs score, Locomotive behavior score, and rat body weight as indicators, which were used for evaluation of drugs.
as §1, with “The tape agent of formulation 2 was applied to the abdominal regions of rats on the evaluation date at 60 cm^2/kg (37 mg/kg).” left out
as §2
When evaluating dyskinesia-like symptoms, the sum of the Limb AIMs, Axial AIMs, and Orolingual AIMs at each evaluation point was used as the AIMs score.

[4] = tested on: PD-LID rat model (6-OHDA-lesioned rats); assay: Dyskinesia improving effect upon continuous subcutaneous infusion of tandospirone in PD-LID rat model; assay type: in vivo
Method: The behavior was observed and evaluated before the drug evaluation date. The rats were assigned to each dosing group by using the 3 hour AIMs score, Locomotive behavior score, and rat body weight as indicators, which were used for evaluation of drugs. However, individuals with a total AIMs score of less than 10 were excluded from the test as lacking manifestation of a dyskinesia-like symptom. Individuals with a body weight deviating 10% or more from the mean body weight were also excluded from the test to minimize variation in the dosage for each individual. […] The prepared solution was used after injection into an ALZET® Osmotic Pump MODEL 2ML1 (9.68 μL/hour; DURECT). […] After 4 hours, a levodopa containing solution was administered to observe and evaluate the behavior. […] The results in the drawings are indicated in terms of mean value±standard error. The test results were statistically analyzed by comparison with the solvent administration group by Steel test using the total AIMs score in 3 hours and the total AIMs score in 100 to 180 minutes as parameters. * indicates p<0.05, meaning that there is a significant difference.

[5] = continuous subcutaneous infusion 1.25 mg/kg/hour
[6] = transdermal condition 1, 37 mg/kg, no stripping
[7] = transdermal condition 2, 45 mg/kg, with stripping

## O=C1[C@@H]2[C@H]3CC[C@H](C3)[C@@H]2C(=O)N1CCCCN1CCN(c2ncccn2)CC1 [tandospirone, (1R,2S,3R,4S)—N-[4-{4-(pyrimidine-2-yl)piperadine-1-yl}butyl]-2,3-bicyclo[2.2.1]heptanedicarboximide]
[1]; continuous subcutaneous infusion 0.05 mg/kg/hour
  concentration at 7 h: 23.5 ng/mL
[1]; continuous subcutaneous infusion 0.25 mg/kg/hour
  concentration at 7 h: 119 ng/mL
[1]; [5]
  concentration at 7 h: 541 ng/mL
[2]
  anxiolytic action compared with effect on PD-LID: exerted at the same dosage
[3]; transdermal condition 1 (no stripping), 37 mg/kg
  difference (decrease) in total AIMs score in 3 hours, placebo tape agent minus tandospirone: 17.7**
[3]; [6]
  (ii) Indicator of rebound symptom of dyskinesia, in words: No effect
  (ii) Indicator of rebound symptom of dyskinesia: difference in total AIMs score in 100 to 180 minutes (placebo minus tandospirone): −0.1
[3]; transdermal condition 2 (with stripping), 45 mg/kg
  difference (decrease) in total AIMs score in 3 hours, placebo tape agent minus tandospirone: 27.1**
[3]; [7]
  (ii) Indicator of rebound symptom of dyskinesia, in words: No effect
  (ii) Indicator of rebound symptom of dyskinesia: difference in total AIMs score in 100 to 180 minutes (placebo minus tandospirone): 0.9
[4]; [5]
  dyskinesia-like symptoms (total AIMs score in 180 minutes) vs solvent: significant improvement
  total AIMs score in 100 to 180 minutes vs solvent: significant improvement
[4]; continuous subcutaneous infusion 0.05, 0.25, 1.25 mg/kg/hour, levodopa after 4 hours
  dyskinesia-like symptoms (total AIMs score in 180 minutes): dose-dependently improved dyskinesia-like symptoms
[4]; continuous subcutaneous infusion 0.05-1.25 mg/kg/hour
  clear dyskinesia-like symptom (mean AIMs score of 2 or greater) at 120 to 140 minutes after levodopa administration: not found
[4]; continuous subcutaneous infusion, any of the dosages
  rebound symptom: did not lead to a rebound symptom
